# Target: T1, human P450 11A1 (Homo sapiens, UniProt P05108)
# T1 sequence (P05108 41-521 limits assumed): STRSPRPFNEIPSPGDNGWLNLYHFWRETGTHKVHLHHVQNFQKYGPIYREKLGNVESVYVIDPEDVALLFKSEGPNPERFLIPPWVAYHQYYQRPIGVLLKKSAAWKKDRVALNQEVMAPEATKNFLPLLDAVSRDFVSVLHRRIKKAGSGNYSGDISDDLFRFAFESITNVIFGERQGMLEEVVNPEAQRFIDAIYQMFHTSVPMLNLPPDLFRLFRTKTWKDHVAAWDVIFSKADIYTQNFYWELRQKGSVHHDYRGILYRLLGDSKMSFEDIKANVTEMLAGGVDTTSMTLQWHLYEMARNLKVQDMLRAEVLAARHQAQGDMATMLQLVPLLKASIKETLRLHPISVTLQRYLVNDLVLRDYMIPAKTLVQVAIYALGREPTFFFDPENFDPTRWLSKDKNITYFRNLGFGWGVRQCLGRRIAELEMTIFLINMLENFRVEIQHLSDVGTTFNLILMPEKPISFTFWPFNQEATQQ
# T1 sequence (P00257 59-186 partner): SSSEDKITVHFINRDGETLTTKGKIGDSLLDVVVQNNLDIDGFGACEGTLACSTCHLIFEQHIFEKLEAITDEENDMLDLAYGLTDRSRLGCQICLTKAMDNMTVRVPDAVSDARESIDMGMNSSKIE
# Test: Single-turnover kinetics of P450 11A1 with [1,2-3H]-cholesterol (radio-HPLC)
# Type: biochemical
# Parameters: M A S T R S P R P F N E I P S P G D N; Met-Ala (N-terminal start residues in place of the transit peptide and Ile40) (N); made in house; host or cells: E. coli (P450 11A1 in C41(DE3); Adx and AdR in E. coli)
# Protocol: In this reaction, a 5 μM complex of P450 11A1 and 4.5 μM cholesterol was assembled, and Adx was added at either equimolar (low, 5 μM) or 10-fold excess (high, 50 μM) concentrations (along with 10 μM AdR). The complex was diluted 2-fold (with 5 mM NADPH) in the apparatus to initiate the reaction, which was quenched at variable times. The products of the reaction were extracted and quantified by radio-HPLC. […] (The analysis of kinetic modeling is described below.)
# P450 11A1 (5 μM) was reconstituted with its redox partners AdR (10 μM) and Adx (5 μM) on ice (10 min) prior to dilution in potassium Hepes buffer (50 mM, pH 7.4) and H2O and the addition of ^3H-cholesterol substrate (4.5 μM, 0.5 Ci/mmol). The concentration of substrate was deliberately kept slightly below the enzyme concentration to ensure that single-turnover conditions were strictly followed. The mixture (0.75 ml) was preincubated (37 °C, 5 min) in a shaking water bath prior to initiation with an equal volume of NADPH solution (5 mM, from a 10 mM stock in 50 mM potassium Hepes buffer, pH 7.4), thus reducing the concentrations of all enzymes and substrate to one-half their starting concentrations. After completing the desired incubation time, an aliquot (200 μl) was removed from the incubation and added to vials containing aqueous HCl (800 μl, 1 M). The quenched reactions were mixed with a vortex device and placed on ice. When the time course was complete, the quenched reactions were mixed with CH2Cl2 (5 ml) to extract reaction products and were centrifuged (10^3g, 5 min, 23 °C) to separate layers, and the organic (bottom) layers were transferred (4 ml) to fresh glass vials. The extraction process was repeated and the two extracts (2 × 4 ml) from each sample were combined to maximize product recovery. Samples (8 ml) were brought to dryness under a stream of nitrogen, and the dried residues were dissolved in CH3OH (75 μl) and transferred to autosampler vials for analysis by radio-HPLC.
# Enzyme and NADPH solutions were prepared as described for the benchtop experiments (above) but with the modification that the concentration of Adx was increased to 50 μM (from 5 μM). […] The rapid quench-flow is a rapid mixing device that combines equal volumes (∼19 μl) of two solutions (P450 and NADPH, held at 37 °C) into a central internal chamber to initiate a reaction. After the preset reaction time is completed, the mixture (∼38 μl) is then rapidly combined with a quench solution (1 M HCl, ∼160 μl), expelled from the apparatus, and collected in vials. Utilizing this experimental design, the reaction of enzyme-substrate complex (P450 11A1-Adx-AdR and ^3H-cholesterol) was initiated with NADPH on a variable timescale (0–90 s), pooling five replicates of each time point to maximize sensitivity. The products of each quenched reaction (∼1 ml) were extracted with two volumes (5 ml) of CH2Cl2, brought to dryness, and dissolved in CH3OH as described for the benchtop experiments.
# Samples (held at 4 °C) were injected (50 μl) using a Agilent 1100 Series HPLC system on a NovaPak (Waters) octadecylsilane (C18) 3.9 mm × 100 mm (4 μm) column (held at 25 °C) with a flow rate of 1.0 ml min^−1 using a gradient mobile phase of (A) H2O and (B) CH3CN as follows (all in % B, v/v): 0 min, 70%; 10 min, 100%; 35.5 min, 100%; 37 min, 30%; and 40 min, 70%).
# [1] = 10-fold excess (high) Adx, time 0 s
# [2] = 10-fold excess (high) Adx, time 0.25 s
# [3] = 10-fold excess (high) Adx, time 0.5 s
# [4] = 10-fold excess (high) Adx, time 0.75 s
# [5] = 10-fold excess (high) Adx, time 1 s
# [6] = 10-fold excess (high) Adx, time 2 s
# [7] = 10-fold excess (high) Adx, time 2.5 s
# [8] = 10-fold excess (high) Adx, time 3.5 s
# [9] = 10-fold excess (high) Adx, time 5 s
# [10] = 10-fold excess (high) Adx, time 6 s
# [11] = 10-fold excess (high) Adx, time 7.5 s
# [12] = 10-fold excess (high) Adx, time 10 s
# [13] = 10-fold excess (high) Adx, time 15 s
# [14] = 10-fold excess (high) Adx, time 20 s
# [15] = 10-fold excess (high) Adx, time 30 s
# [16] = 10-fold excess (high) Adx, time 45 s
# [17] = 10-fold excess (high) Adx, time 60 s
# [18] = 10-fold excess (high) Adx, time 90 s
# [19] = second table, headed 10-fold excess (high) Adx, time 0 s
# [20] = second table, headed 10-fold excess (high) Adx, time 10 s
# [21] = second table, headed 10-fold excess (high) Adx, time 25 s
# [22] = second table, headed 10-fold excess (high) Adx, time 50 s
# [23] = second table, headed 10-fold excess (high) Adx, time 75 s
# [24] = second table, headed 10-fold excess (high) Adx, time 100 s
# [25] = second table, headed 10-fold excess (high) Adx, time 200 s
# [26] = second table, headed 10-fold excess (high) Adx, time 500 s
Compound,concentration in single-turnover reaction [1] [µM],concentration in single-turnover reaction [2] [µM],concentration in single-turnover reaction [3] [µM],concentration in single-turnover reaction [4] [µM],concentration in single-turnover reaction [5] [µM],concentration in single-turnover reaction [6] [µM],concentration in single-turnover reaction [7] [µM],concentration in single-turnover reaction [8] [µM],concentration in single-turnover reaction [9] [µM],concentration in single-turnover reaction [10] [µM],concentration in single-turnover reaction [11] [µM],concentration in single-turnover reaction [12] [µM],concentration in single-turnover reaction [13] [µM],concentration in single-turnover reaction [14] [µM],concentration in single-turnover reaction [15] [µM],concentration in single-turnover reaction [16] [µM],concentration in single-turnover reaction [17] [µM],concentration in single-turnover reaction [18] [µM],concentration in single-turnover reaction [19] [µM],concentration in single-turnover reaction [20] [µM],also measured
"CC(C)CC[C@@H](O)[C@@H](C)[C@H]1CC[C@H]2[C@@H]3CC=C4C[C@@H](O)CC[C@]4(C)[C@H]3CC[C@]12C [22R-OH Chol, 22R-hydroxycholesterol]",0,0.1665,0.3411,0.2577,0.2098,0.2144,0.1649,0.1652,0.1576,0.1666,0.1648,0.1591,0.1351,0.101,0.09739,0.06928,0.06822,0.05063,0,0.2262,concentration in single-turnover reaction [21]: 0.1763 µM; concentration in single-turnover reaction [22]: 0.1172 µM; concentration in single-turnover reaction [23]: 0.06255 µM; concentration in single-turnover reaction [24]: 0 µM; concentration in single-turnover reaction [25]: 0 µM; concentration in single-turnover reaction [26]: 0 µM
"CC(C)CC[C@@H](O)[C@](C)(O)[C@H]1CC[C@H]2[C@@H]3CC=C4C[C@@H](O)CC[C@]4(C)[C@H]3CC[C@]12C [20R,22R-(OH)2 Chol, (20R,22R)-Cholest-5-ene-3β,20,22-triol]",0,0,0.1366,0.2407,0.2278,0.1672,0.2051,0.184,0.1911,0.1865,0.2095,0.1817,0.1522,0.1106,0.03422,0,0,0,0,0.239,concentration in single-turnover reaction [21]: 0.1619 µM; concentration in single-turnover reaction [22]: 0.07194 µM; concentration in single-turnover reaction [23]: 0.04787 µM; concentration in single-turnover reaction [24]: 0 µM; concentration in single-turnover reaction [25]: 0 µM; concentration in single-turnover reaction [26]: 0 µM
CC(=O)[C@H]1CC[C@H]2[C@@H]3CC=C4C[C@@H](O)CC[C@]4(C)[C@H]3CC[C@]12C [Pregnenolone],0,0,0,0.1368,0.3142,0.6865,0.7647,1.037,1.311,1.385,1.618,2.345,2.973,3.346,3.763,4.002,4.116,4.189,0,1.241,concentration in single-turnover reaction [21]: 2.512 µM; concentration in single-turnover reaction [22]: 3.582 µM; concentration in single-turnover reaction [23]: 4.057 µM; concentration in single-turnover reaction [24]: 4.341 µM; concentration in single-turnover reaction [25]: 4.5 µM; concentration in single-turnover reaction [26]: 4.5 µM
CC(C)CCC[C@@H](C)[C@H]1CC[C@H]2[C@@H]3CC=C4C[C@@H](O)CC[C@]4(C)[C@H]3CC[C@]12C [Cholesterol],4.5,4.334,4.022,3.865,3.748,3.432,3.365,3.113,2.84,2.762,2.508,1.814,1.24,0.9421,0.6054,0.4283,0.3162,0.26,4.5,2.794,"time to complete reaction, low Adx (5 μM Adx): 3 min; time to complete reaction, excess Adx (50 μM Adx): 1 min; first-order decay, rate of 22R-hydroxylation (k2), single exponential fit (10-fold (50 μM) excess Adx): 0.09 s⁻¹; concentration in single-turnover reaction [21]: 1.649 µM; concentration in single-turnover reaction [22]: 0.7284 µM; concentration in single-turnover reaction [23]: 0.3322 µM; concentration in single-turnover reaction [24]: 0.1591 µM; concentration in single-turnover reaction [25]: 0 µM; concentration in single-turnover reaction [26]: 0 µM"

# Source: article PMC10716780, “The multistep oxidation of cholesterol to pregnenolone by human cytochrome P450 11A1 is highly processive” (The Journal of Biological Chemistry, 2023)
